Test results from PubChem BioAssay AID330 (DTP/NCI, 2004).
Where “and” joins values, the source holds several entries; their conditions need not be identical. Equal entries are not always repeated. Toxic doses and inconclusive results are not listed. Rule for the calls: active = survival T/C of 150% or more; inactive = T/C below 125% in these data.

System: P388 leukemia ip, CD2F1 mice, survival T/C
Assay: NCI In Vivo Anticancer Drug Screen. Data for tumor model P388 Leukemia (intraperitoneal) in CD2F1 (CDF1) mice
Details: endpoint: median survival time, higher = longer survival
In short: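 Mice carrying the transplanted tumor received test compound or vehicle. Survival was recorded in each group, and the value is the treated-group measurement divided by that of the vehicle-treated control group.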

[1] = dose: 50.0 mg/kg/injection, schedule: Q01DX009 (ip), vehicle: Klucel (hydroxypropylcellulose) (HPC)
[2] = dose: 100.0 mg/kg/injection, schedule: Q01DX009 (ip), vehicle: Klucel (hydroxypropylcellulose) (HPC)
[3] = dose: 200.0 mg/kg/injection, schedule: Q01DX009 (ip), vehicle: Klucel (hydroxypropylcellulose) (HPC)
[4] = dose: 50.0 mg/kg/injection, schedule: Q01DX005 (ip), vehicle: saline with Tween-80
[5] = dose: 100.0 mg/kg/injection, schedule: Q01DX005 (ip), vehicle: saline with Tween-80
[6] = dose: 200.0 mg/kg/injection, schedule: Q01DX005 (ip), vehicle: saline with Tween-80
[7] = dose: 50.0 mg/kg/injection, schedule: Q01DX009 (ip), vehicle: saline with Tween-80
[8] = dose: 100.0 mg/kg/injection, schedule: Q01DX009 (ip), vehicle: saline with Tween-80

Measured: T/C

O=C(Nc1ccc(O)cc1)C(F)(F)F
inactive: [1] 93 % of control | [2] 95 % of control | [3] 90 % of control

CSc1nc(NC2OC(CO)C(O)C(O)C2O)c(C(=O)CCl)c(=O)n1C (centres undefined)
inactive: [4] 93 % of control | [5] 91 % of control | [6] 90 % of control

Oc1[nH]c2ccccc2c1N=Nc1nnc(-c2ccccc2)c(-c2ccccc2)n1
inactive: [4] 95 % of control | [5] 107 % of control | [6] 101 % of control

Cc1nc(CO)cc([N+](=O)[O-])c1C
inactive: dose: 12.5 mg/kg/injection, schedule: Q01DX009 (ip), vehicle: distilled water + Tween-80 101 % of control | dose: 25.0 mg/kg/injection, schedule: Q01DX009 (ip), vehicle: distilled water + Tween-80 101 % of control | dose: 50.0 mg/kg/injection, schedule: Q01DX009 (ip), vehicle: distilled water + Tween-80 100 % of control | dose: 100.0 mg/kg/injection, schedule: Q01DX009 (ip), vehicle: distilled water + Tween-80 101 % of control | dose: 200.0 mg/kg/injection, schedule: Q01DX009 (ip), vehicle: distilled water + Tween-80 104 % of control

CCN(CC)Cc1cc(Nc2nc(/C=C/c3ccccc3)nc3ccccc23)ccc1O
inactive: dose: 50.0 mg/kg/injection, schedule: Q01DX009 (ip), vehicle: distilled water + alcohol 97 % of control | dose: 100.0 mg/kg/injection, schedule: Q01DX009 (ip), vehicle: distilled water + alcohol 100 % of control | dose: 200.0 mg/kg/injection, schedule: Q01DX009 (ip), vehicle: distilled water + alcohol 98 % of control

S=C(Nc1ccccc1)SSC(Cl)(Cl)Cl
inactive: dose: 12.5 mg/kg/injection, schedule: Q01DX009 (ip), vehicle: saline + Tween-80 + alcohol 93 % of control | dose: 25.0 mg/kg/injection, schedule: Q01DX009 (ip), vehicle: saline + Tween-80 + alcohol 94 % of control | dose: 50.0 mg/kg/injection, schedule: Q01DX009 (ip), vehicle: saline + Tween-80 + alcohol 109 % of control | [7] 117 % of control | [8] 114 % of control

CC(C)(C)c1ccc(NC(=O)Oc2ccccc2)cc1
inactive: [1] 102 % of control | [2] 105 % of control | [3] 102 % of control

CC(Cl)CN1COc2ccc3ccc4c(c3c2C1)CN(CC(C)Cl)CO4 (centres undefined)
inactive: dose: 50.0 mg/kg/injection, schedule: Q01DX005 (ip), vehicle: Klucel (hydroxypropylcellulose) (HPC) 106 % of control and 107 % of control and 117 % of control | dose: 100.0 mg/kg/injection, schedule: Q01DX005 (ip), vehicle: Klucel (hydroxypropylcellulose) (HPC) 107 % of control and 112 % of control and 123 % of control | dose: 200.0 mg/kg/injection, schedule: Q01DX005 (ip), vehicle: Klucel (hydroxypropylcellulose) (HPC) 117 % of control and 124 % of control | dose: 400.0 mg/kg/injection, schedule: Q01DX005 (ip), vehicle: Klucel (hydroxypropylcellulose) (HPC) 116 % of control

C(=C/c1cc2cc(C3=NCCN3)ccc2o1)/C=C/c1cc2cc(C3=NCCN3)ccc2o1
inactive: dose: 100.0 mg/kg/injection, schedule: Q04DX003 (ip), vehicle: saline 106 % of control | dose: 200.0 mg/kg/injection, schedule: Q04DX003 (ip), vehicle: saline 104 % of control | dose: 400.0 mg/kg/injection, schedule: Q04DX003 (ip), vehicle: saline 110 % of control

COc1cc2c(cc1O)CC1c3c(cc(OC)c(O)c3C2)CCN1C (centres undefined)
inactive: dose: 12.5 mg/kg/injection, schedule: Q01DX001 (ip), vehicle: saline with Tween-80 100 % of control | dose: 25.0 mg/kg/injection, schedule: Q01DX001 (ip), vehicle: saline with Tween-80 96 % of control | dose: 50.0 mg/kg/injection, schedule: Q01DX001 (ip), vehicle: saline with Tween-80 97 % of control | dose: 100.0 mg/kg/injection, schedule: Q01DX001 (ip), vehicle: saline with Tween-80 95 % of control

O=C1OC(C(O)CO)/C(=N\O)C1O (centres undefined)
inactive: dose: 50.0 mg/kg/injection, schedule: Q01DX009 (ip), vehicle: saline 104 % of control | dose: 100.0 mg/kg/injection, schedule: Q01DX009 (ip), vehicle: saline 104 % of control | dose: 200.0 mg/kg/injection, schedule: Q01DX009 (ip), vehicle: saline 111 % of control

C(=N/n1nnc(-c2ccccc2)n1)/c1ccccc1
inactive: [4] 101 % of control | [5] 92 % of control

Cc1cc(NCCCN(C)C)c2c(ccc3c(NCCCN(C)C)cc(C)nc32)n1
inactive: dose: 6.0 mg/kg/injection, schedule: Q01DX009 (ip), vehicle: suspension in saline 98 % of control | dose: 12.0 mg/kg/injection, schedule: Q01DX009 (ip), vehicle: suspension in saline 104 % of control | dose: 24.0 mg/kg/injection, schedule: Q01DX009 (ip), vehicle: saline with Tween-80 96 % of control | dose: 24.0 mg/kg/injection, schedule: Q01DX009 (ip), vehicle: suspension in saline 115 % of control

CC1CCC2(C)OC1OC2=O (centres undefined)
inactive: [4] 97 % of control | [5] 91 % of control | [6] 87 % of control

CCOC(=O)C1=NN2c3ccccc3OCC2C1 (centres undefined)
inactive: dose: 50.0 mg/kg/injection, schedule: Q04DX003 (ip), vehicle: suspension in saline 99 % of control | dose: 100.0 mg/kg/injection, schedule: Q04DX003 (ip), vehicle: suspension in saline 101 % of control | dose: 200.0 mg/kg/injection, schedule: Q04DX003 (ip), vehicle: suspension in saline 100 % of control

COc1ccc(-n2cnc3c(cnn3CN3CCCCC3)c2=O)cc1
inactive: dose: 60.0 mg/kg/injection, schedule: Q01DX005 (ip), vehicle: Klucel (hydroxypropylcellulose) (HPC) 104 % of control | dose: 120.0 mg/kg/injection, schedule: Q01DX005 (ip), vehicle: Klucel (hydroxypropylcellulose) (HPC) 103 % of control

Cc1c(O)c2ccccc2c2c1sc(NCCCN(CCO)CCO)[n+]2C
inactive: dose: 7.5 mg/kg/injection, schedule: Q01DX005 (ip), vehicle: saline 109 % of control | dose: 15.0 mg/kg/injection, schedule: Q01DX005 (ip), vehicle: saline 107 % of control | dose: 30.0 mg/kg/injection, schedule: Q01DX005 (ip), vehicle: saline 110 % of control

C#CC(=O)O
inactive: dose: 6.25 mg/kg/injection, schedule: Q01DX009 (ip), vehicle: saline with Tween-80 111 % of control | dose: 12.5 mg/kg/injection, schedule: Q01DX009 (ip), vehicle: saline with Tween-80 95 % of control | dose: 25.0 mg/kg/injection, schedule: Q01DX009 (ip), vehicle: saline with Tween-80 92 % of control

Cc1ccc(SSC(=S)N2CCOCC2)cc1
inactive: dose: 100.0 mg/kg/injection, schedule: Q01DX001 (ip), vehicle: Klucel (hydroxypropylcellulose) (HPC) 104 % of control | dose: 200.0 mg/kg/injection, schedule: Q01DX001 (ip), vehicle: Klucel (hydroxypropylcellulose) (HPC) 96 % of control | dose: 400.0 mg/kg/injection, schedule: Q01DX001 (ip), vehicle: Klucel (hydroxypropylcellulose) (HPC) 101 % of control

COc1ccc(NN=O)cn1
inactive: dose: 1.56 mg/kg/injection, schedule: Q01DX009 (ip), vehicle: water 100 % of control | dose: 3.12 mg/kg/injection, schedule: Q01DX009 (ip), vehicle: water 100 % of control and 105 % of control | dose: 6.25 mg/kg/injection, schedule: Q01DX009 (ip), vehicle: water 99 % of control and 106 % of control | dose: 12.5 mg/kg/injection, schedule: Q01DX009 (ip), vehicle: water 106 % of control and 107 % of control and 98 % of control | dose: 25.0 mg/kg/injection, schedule: Q01DX009 (ip), vehicle: water 115 % of control and 122 % of control and 97 % of control | dose: 50.0 mg/kg/injection, schedule: Q01DX009 (ip), vehicle: water 114 % of control and 122 % of control | dose: 100.0 mg/kg/injection, schedule: Q01DX009 (ip), vehicle: water 122 % of control | dose: 200.0 mg/kg/injection, schedule: Q01DX009 (ip), vehicle: water 121 % of control

O=c1[nH]cnc2c1nc(Br)n2C1OC(CO)C(O)C1O (centres undefined)
inactive: dose: 6.25 mg/kg/injection, schedule: Q01DX009 (ip), vehicle: Klucel (hydroxypropylcellulose) (HPC) 94 % of control | dose: 12.5 mg/kg/injection, schedule: Q01DX009 (ip), vehicle: Klucel (hydroxypropylcellulose) (HPC) 94 % of control | dose: 25.0 mg/kg/injection, schedule: Q01DX009 (ip), vehicle: Klucel (hydroxypropylcellulose) (HPC) 94 % of control | [1] 97 % of control | [2] 94 % of control

Nc1ccc(-c2csc(Nc3ccnc4cc(Cl)ccc34)n2)cc1
inactive: [4] 99 % of control | [5] 93 % of control | [6] 88 % of control

Cc1cc2[nH]c3c(C#N)c(O)c(Cc4ccccc4)c(=O)n3c2cc1C
inactive: dose: 60.0 mg/kg/injection, schedule: Q01DX005 (ip), vehicle: saline with Tween-80 91 % of control | dose: 120.0 mg/kg/injection, schedule: Q01DX005 (ip), vehicle: saline with Tween-80 89 % of control | dose: 240.0 mg/kg/injection, schedule: Q01DX005 (ip), vehicle: saline with Tween-80 90 % of control

CC(C)COC(CNC(=O)c1ccccc1)C(Cl)(Cl)Cl (centres undefined)
inactive: [7] 100 % of control | [8] 100 % of control | dose: 200.0 mg/kg/injection, schedule: Q01DX009 (ip), vehicle: saline with Tween-80 110 % of control
